Data from patent US8697739B2, “Bicyclic acetyl-CoA carboxylase inhibitors and uses thereof” (Novartis AG, priority 2010, dated 2014).

Target: T1, human acetyl-CoA carboxylase 2 (ACC2) (Homo sapiens, UniProt O00763)
T1 construct: The cDNA encoding amino acids 144 to 2458 of human acetyl-CoA carboxylase 2; made in house; host or cells: Sf9 insect cells (baculovirus, pFastBac1)
Assay: Acetyl-CoA carboxylase enzyme assay (malonyl-CoA formation by LC/MS/MS)
Format: biochemical
Settings: recombinant human ACC2 (aa 144-2458); read-out: IC50 ACC2
How it was run: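 Malonyl-CoA formation was read by LC/MS/MS MRM against a [13C3]-malonyl-CoA internal standard, after acetic acid quench. The enzyme was baculovirus/Sf9-expressed human ACC2 residues 144–2458, given 15 minutes room-temperature compound preincubation in HEPES pH 7.5 buffer with MgCl2, citrate and DTT. Substrate solution held 50 μM acetyl-CoA, 120 μM ATP and 2 mM KHCO3.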

T1 sequence (O00763 144-2458): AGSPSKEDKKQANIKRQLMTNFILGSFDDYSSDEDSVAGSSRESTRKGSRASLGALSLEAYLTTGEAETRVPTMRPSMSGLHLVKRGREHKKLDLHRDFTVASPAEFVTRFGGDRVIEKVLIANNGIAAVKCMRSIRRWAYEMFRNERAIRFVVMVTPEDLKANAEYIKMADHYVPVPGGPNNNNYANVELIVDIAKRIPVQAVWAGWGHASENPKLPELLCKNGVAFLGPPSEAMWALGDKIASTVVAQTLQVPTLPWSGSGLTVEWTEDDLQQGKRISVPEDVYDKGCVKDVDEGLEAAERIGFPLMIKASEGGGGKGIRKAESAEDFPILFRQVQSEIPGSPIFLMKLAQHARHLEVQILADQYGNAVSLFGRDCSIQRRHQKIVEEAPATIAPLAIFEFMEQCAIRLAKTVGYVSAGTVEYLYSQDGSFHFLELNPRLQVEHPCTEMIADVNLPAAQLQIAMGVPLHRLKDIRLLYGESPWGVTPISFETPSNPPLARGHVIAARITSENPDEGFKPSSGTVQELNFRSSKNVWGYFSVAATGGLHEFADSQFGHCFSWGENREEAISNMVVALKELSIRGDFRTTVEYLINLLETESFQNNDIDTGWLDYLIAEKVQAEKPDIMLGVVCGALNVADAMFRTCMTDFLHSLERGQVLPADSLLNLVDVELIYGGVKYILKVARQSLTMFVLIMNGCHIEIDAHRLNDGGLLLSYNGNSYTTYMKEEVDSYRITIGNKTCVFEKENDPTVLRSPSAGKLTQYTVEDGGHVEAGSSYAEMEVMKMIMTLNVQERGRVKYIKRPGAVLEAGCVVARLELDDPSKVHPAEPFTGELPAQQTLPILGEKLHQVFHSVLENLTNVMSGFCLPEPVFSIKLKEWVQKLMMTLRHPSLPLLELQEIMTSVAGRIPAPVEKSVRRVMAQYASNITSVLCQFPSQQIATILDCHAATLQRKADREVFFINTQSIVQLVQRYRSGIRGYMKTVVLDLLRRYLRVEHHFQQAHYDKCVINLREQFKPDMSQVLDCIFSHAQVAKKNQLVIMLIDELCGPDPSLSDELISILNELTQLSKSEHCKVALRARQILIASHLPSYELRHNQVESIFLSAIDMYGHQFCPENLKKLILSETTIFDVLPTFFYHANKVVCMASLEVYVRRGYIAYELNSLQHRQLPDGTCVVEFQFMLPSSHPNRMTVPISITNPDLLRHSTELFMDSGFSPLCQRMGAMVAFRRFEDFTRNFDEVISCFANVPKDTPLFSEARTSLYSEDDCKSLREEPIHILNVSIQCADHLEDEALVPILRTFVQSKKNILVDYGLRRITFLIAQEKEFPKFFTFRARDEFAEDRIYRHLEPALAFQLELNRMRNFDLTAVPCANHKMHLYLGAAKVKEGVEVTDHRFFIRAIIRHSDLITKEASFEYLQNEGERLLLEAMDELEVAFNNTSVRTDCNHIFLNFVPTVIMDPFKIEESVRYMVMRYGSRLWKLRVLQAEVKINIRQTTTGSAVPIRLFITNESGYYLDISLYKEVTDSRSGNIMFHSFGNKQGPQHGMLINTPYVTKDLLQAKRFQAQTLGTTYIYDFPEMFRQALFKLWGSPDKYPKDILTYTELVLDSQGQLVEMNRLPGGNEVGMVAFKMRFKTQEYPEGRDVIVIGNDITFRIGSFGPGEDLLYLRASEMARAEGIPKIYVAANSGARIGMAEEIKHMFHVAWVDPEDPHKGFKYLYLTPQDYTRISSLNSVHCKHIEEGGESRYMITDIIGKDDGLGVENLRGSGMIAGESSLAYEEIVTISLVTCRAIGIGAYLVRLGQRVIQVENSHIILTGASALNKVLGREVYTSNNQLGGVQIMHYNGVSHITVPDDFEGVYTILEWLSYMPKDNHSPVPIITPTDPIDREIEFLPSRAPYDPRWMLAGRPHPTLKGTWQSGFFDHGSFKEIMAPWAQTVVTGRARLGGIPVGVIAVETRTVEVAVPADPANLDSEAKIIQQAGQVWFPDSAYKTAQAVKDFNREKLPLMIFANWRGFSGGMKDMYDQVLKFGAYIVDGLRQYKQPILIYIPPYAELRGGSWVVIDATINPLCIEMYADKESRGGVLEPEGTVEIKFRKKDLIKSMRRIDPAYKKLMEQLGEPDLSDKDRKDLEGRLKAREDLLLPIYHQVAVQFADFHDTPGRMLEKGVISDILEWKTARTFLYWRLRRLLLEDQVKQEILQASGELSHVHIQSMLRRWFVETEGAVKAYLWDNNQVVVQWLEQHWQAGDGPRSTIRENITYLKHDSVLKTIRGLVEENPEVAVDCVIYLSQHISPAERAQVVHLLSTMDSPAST

| IC50 [nM] | Structure (SMILES) |
| --- | --- |
| 599 | Cc1cc(CO)ccc1-c1cc2ccc(S(=O)(=O)N[C@H]3CC[C@H](C(=O)N4CCNCC4)CC3)cc2[nH]1 [Example 312, 2-(4-(hydroxymethyl)-2-methylphenyl)-N-((1r,4r)-4-(piperazine-1-carbonyl)cyclohexyl)-1H-indole-6-sulfonamide] |
| < 10 | Cc1cc(CO)ccc1-c1cc2ccc(S(=O)(=O)N[C@H]3CC[C@H](C(=O)N4CCNC[C@@H]4c4ccccc4)CC3)cc2[nH]1 [Example 313, 2-(4-(hydroxymethyl)-2-methylphenyl)-N-((1S,4r)-4-((S)-2-phenylpiperazine-1-carbonyl)cyclohexyl)-1H-indole-6-sulfonamide] |
| 60 | Cc1cc(CO)ccc1-c1cc2ccc(S(=O)(=O)N[C@H]3CC[C@H](C(=O)N4CCCCC4)CC3)cc2[nH]1 [Example 314, 2-(4-(hydroxymethyl)-2-methylphenyl)-N-((1r,4r)-4-(piperidine-1-carbonyl)cyclohexyl)-1H-indole-6-sulfonamide] |
| 20 | Cc1cc(CO)ccc1-c1cc2ccc(S(=O)(=O)N[C@H]3CC[C@H](C(=O)N[C@H](C)c4ccc(F)cc4)CC3)cc2n1C [Example 315, (1r,4R)-N-((R)-1-(4-fluorophenyl)ethyl)-4-(2-(4-(hydroxymethyl)-2-methylphenyl)-1-methyl-1H-indole-6-sulfonamido)cyclohexanecarboxamide] |
| 110 | CC(O)Cc1cc2ccc(S(=O)(=O)N[C@H]3CC[C@H](C(=O)N[C@H](C)c4ccc(F)cc4)CC3)cc2[nH]1 (stereo partly drawn) [Example 316, (1r,4R)-N-((R)-1-(4-fluorophenyl)ethyl)-4-(2-(2-hydroxypropyl)-1H-indole-6-sulfonamido)cyclohexanecarboxamide] |
| 25 | Cc1cc(CO)ccc1-c1cc2ccc(S(=O)(=O)N[C@H]3CC[C@H](C(=O)N4CCNC(C(F)(F)F)C4)CC3)cc2[nH]1 (stereo partly shown) [Example 317, 2-(4-(hydroxymethyl)-2-methylphenyl)-N-((1r,4r)-4-(3-(trifluoromethyl)piperazine-1-carbonyl)cyclohexyl)-1H-indole-6-sulfonamide] |
| 515 | Cc1cc(CO)ccc1-c1cc2ccc(S(=O)(=O)N[C@H]3CC[C@H](C(=O)N4CCNC(C(F)(F)F)C4)CC3)cc2n1C (stereo partly shown) [Example 318, 2-(4-(hydroxymethyl)-2-methylphenyl)-1-methyl-N-((1r,4r)-4-(3-(trifluoromethyl)piperazine-1-carbonyl)cyclohexyl)-1H-indole-6-sulfonamide] |
| 25 | C[C@@H](NC(=O)[C@H]1CC[C@H](NS(=O)(=O)c2ccc3cc(CCCO)[nH]c3c2)CC1)c1ccc(F)cc1 [Example 319, (1r,4R)-N-((R)-1-(4-fluorophenyl)ethyl)-4-(2-(3-hydroxypropyl)-1H-indole-6-sulfonamido)cyclohexanecarboxamide] |
| 85 | Cc1ccccc1-c1cc2ccc(S(=O)(=O)N[C@H]3CC[C@H](C(=O)N4CCNC(C(F)(F)F)C4)CC3)cc2[nH]1 (stereo partly shown) [Example 320, 2-o-tolyl-N-((1r,4r)-4-(3-(trifluoromethyl)piperazine-1-carbonyl)cyclohexyl)-1H-indole-6-sulfonamide] |
| 250 | Cc1ccccc1-c1cc2ccc(S(=O)(=O)N[C@H]3CC[C@H](C(=O)N4CCCC(C(F)(F)F)C4)CC3)cc2[nH]1 (stereo partly shown) [Example 321, 2-o-tolyl-N-((1r,4r)-4-(3-(trifluoromethyl)piperidine-1-carbonyl)cyclohexyl)-1H-indole-6-sulfonamide] |
| < 10 | Cc1ccccc1-c1cc2ccc(S(=O)(=O)N[C@H]3CC[C@H](C(=O)N4CCN(C(=O)OC(C)(C)C)C[C@@H]4c4ccccc4)CC3)cc2[nH]1 [Example 322, (S)-tert-butyl 3-phenyl-4-((1r,4S)-4-(2-o-tolyl-1H-indole-6-sulfonamido)cyclohexanecarbonyl)piperazine-1-carboxylate] |
| 55 | O=C([C@H]1CC[C@H](NS(=O)(=O)c2ccc3cc(-c4ccccc4)[nH]c3c2)CC1)N1CCNC(C(F)(F)F)C1 (stereo partly shown) [Example 323, 2-phenyl-N-((1r,4r)-4-(3-(trifluoromethyl)piperazine-1-carbonyl)cyclohexyl)-1H-indole-6-sulfonamide] |
| 40 | Cn1c(-c2ccccc2)cc2ccc(S(=O)(=O)N[C@H]3CC[C@H](C(=O)N4CCNC(C(F)(F)F)C4)CC3)cc21 (stereo partly shown) [Example 324, 1-methyl-2-phenyl-N-((1r,4r)-4-(3-(trifluoromethyl)piperazine-1-carbonyl)cyclohexyl)-1H-indole-6-sulfonamide] |
| < 10 | Cc1ccccc1-c1cc2ccc(S(=O)(=O)N[C@H]3CC[C@H](C(=O)N4CCNC[C@@H]4c4ccccc4)CC3)cc2[nH]1 [Example 325, N-((1S,4r)-4-((S)-2-phenylpiperazine-1-carbonyl)cyclohexyl)-2-o-tolyl-1H-indole-6-sulfonamide] |
| 325 | Cc1ccccc1-c1cc2ccc(S(=O)(=O)N[C@H]3CC[C@H](C(=O)N4CCOC[C@@H]4c4ccccc4)CC3)cc2[nH]1 [Example 326, N-((1S,4r)-4-((S)-3-phenylmorpholine-4-carbonyl)cyclohexyl)-2-o-tolyl-1H-indole-6-sulfonamide] |
| < 10 | Cc1ccccc1-c1cc2ccc(S(=O)(=O)NC3CCC(C(=O)N4CCOCC4c4ccccc4)CC3)cc2[nH]1 [Example 327, N-((1S,4r)-4-((S)-3-phenylmorpholine-4-carbonyl)cyclohexyl)-2-o-tolyl-1H-indole-6-sulfonamide] |
| 55 | CC(C)(C)OC(=O)N1CCN(C(=O)[C@H]2CC[C@H](NS(=O)(=O)c3ccc4cc(-c5ccccc5C(F)(F)F)[nH]c4c3)CC2)[C@@H](c2ccccc2)C1 [Example 328, (S)-tert-butyl 3-phenyl-4-((1r,4S)-4-(2-(2-(trifluoromethyl)phenyl)-1H-indole-6-sulfonamido)cyclohexanecarbonyl)piperazine-1-carboxylate] |
| 120 | C[C@@H](NC(=O)[C@H]1CC[C@H](NS(=O)(=O)c2ccc3cc(-c4ccccc4C(F)(F)F)[nH]c3c2)CC1)c1ccc(F)cc1 [Example 329, (1r,4R)-N-((R)-1-(4-fluorophenyl)ethyl)-4-(2-(2-(trifluoromethyl)phenyl)-1H-indole-6-sulfonamido)cyclohexanecarboxamide] |
| 3600 | O=C([C@H]1CC[C@H](NS(=O)(=O)c2ccc3cc(-c4ccccc4C(F)(F)F)[nH]c3c2)CC1)N1CCCC(C(F)(F)F)C1 (stereo partly shown) [Example 330, 2-(2-(trifluoromethyl)phenyl)-N-((1r,4r)-4-(3-(trifluoromethyl)piperidine-1-carbonyl)cyclohexyl)-1H-indole-6-sulfonamide] |
| 25 | Cn1c(-c2ccccc2)cc2ccc(S(=O)(=O)N[C@H]3CC[C@H](C(=O)N4CCN[C@H](C(F)(F)F)C4)CC3)cc21 [Example 331, 1-methyl-2-phenyl-N-((1S,4r)-4-((S)-3-(trifluoromethyl)piperazine-1-carbonyl)cyclohexyl)-1H-indole-6-sulfonamide] |
| 25 | Cn1c(-c2ccccc2)cc2ccc(S(=O)(=O)N[C@H]3CC[C@H](C(=O)N4CCN[C@@H](C(F)(F)F)C4)CC3)cc21 [Example 332, 1-methyl-2-phenyl-N-((1R,4r)-4-((R)-3-(trifluoromethyl)piperazine-1-carbonyl)cyclohexyl)-1H-indole-6-sulfonamide] |
| 65 | O=C([C@H]1CC[C@H](NS(=O)(=O)c2ccc3cc(-c4ccccc4C(F)(F)F)[nH]c3c2)CC1)N1CCNC[C@@H]1c1ccccc1 [Example 333, N-((1S,4r)-4-((S)-2-phenylpiperazine-1-carbonyl)cyclohexyl)-2-(2-(trifluoromethyl)phenyl)-1H-indole-6-sulfonamide] |
| 1420 | O=C(C1CCC(NS(=O)(=O)c2ccc3cc(-c4ccccc4C(F)(F)F)[nH]c3c2)CC1)N1CCNC(C(F)(F)F)C1 (stereo not shown) [Example 334, 2-(2-(trifluoromethyl)phenyl)-N-((1r,4r)-4-(3-(trifluoromethyl)piperazine-1-carbonyl)cyclohexyl)-1H-indole-6-sulfonamide] |
| 25 | Cc1ccccc1-c1cc2ccc(S(=O)(=O)N[C@H]3CC[C@H](C(=O)N4CCCC4c4ccccc4)CC3)cc2[nH]1 (stereo partly shown) [Example 335, N-((1r,4r)-4-(2-phenylpyrrolidine-1-carbonyl)cyclohexyl)-2-o-tolyl-1H-indole-6-sulfonamide] |
| 35 | Cn1c(-c2ccc(CO)cc2)cc2ccc(S(=O)(=O)N[C@H]3CC[C@H](C(=O)N4CCOCC4)CC3)cc21 [Example 336, 2-(4-(hydroxymethyl)phenyl)-1-methyl-N-((1r,4r)-4-(morpholine-4-carbonyl)cyclohexyl)-1H-indole-6-sulfonamide] |
| 20 | Cn1c(-c2ccc(CO)cc2)cc2ccc(S(=O)(=O)N[C@H]3CC[C@H](C(=O)N4CCN[C@H](C(F)(F)F)C4)CC3)cc21 [Example 337, 2-(4-(hydroxymethyl)phenyl)-1-methyl-N-((1S,4r)-4-((S)-3-(trifluoromethyl)piperazine-1-carbonyl)cyclohexyl)-1H-indole-6-sulfonamide] |
| 15 | Cn1c(-c2ccc(CO)cc2)cc2ccc(S(=O)(=O)N[C@H]3CC[C@H](C(=O)N4CCN[C@@H](C(F)(F)F)C4)CC3)cc21 [Example 338, 2-(4-(hydroxymethyl)phenyl)-1-methyl-N-((1R,4r)-4-((R)-3-(trifluoromethyl)piperazine-1-carbonyl)cyclohexyl)-1H-indole-6-sulfonamide] |
| 30 | COCc1ccc(-c2cc3ccc(S(=O)(=O)N[C@H]4CC[C@H](C(=O)N5CCNC(C(F)(F)F)C5)CC4)cc3n2C)cc1 (stereo partly shown) [Example 339, 2-(4-(methoxymethyl)phenyl)-1-methyl-N-((1r,4r)-4-(3-(trifluoromethyl)piperazine-1-carbonyl)cyclohexyl)-1H-indole-6-sulfonamide] |
